IC50 and GI50 data for ten compounds are collected here from US20230131720A1, “[1,3]DIAZINO[5,4-d]PYRIMIDINES AS HER2 INHIBITORS” (Boehringer Ingelheim International GmbH, priority 2020, published 2023).

What is called IC50 is the concentration that inhibits the measured activity by half. A lower IC50 goes with greater potency in that assay. What is called GI50 is the concentration giving 50% growth inhibition.

Where two headings read alike, the source gives them in different places. Where only a bound is given, the exact number is not on record here.

Type in all cases: cell-based
One assay has as its target T1, HER2 YVMA (Homo sapiens, UniProt P04626, INS775YVMA).
T1 construct: expressed in transfected cells; host or cells: human HEK cells, retroviral transduction, doxycycline-inducible expression
The assay is described as follows: pHER2 (ERBB2) YVMA assay (AlphaScreen Surefire, HEK cells). The following applies: HEK cells expressing HER2 YVMA. The procedure:
(§1) For the assay, HEK HER2 YVMA cells were seeded in MEM medium with 10% FBS. 4 hours prior to compound addition, HER2 YVMA expression was induced using 1 μg/ml Doxycycline. […] Subsequently, 60.000 cells/well in 60 μL were added. Cells were incubated with compounds for 4 h at 37° C. […] The mixture was incubated at a temperature of 20-25° C. with shaking (700 rpm) for 20 min. After centrifugation, 4 μL of the lysate were transferred to Proxiplates. […] Plates were shaken for 1 min (1400 rpm) and incubated for 2 h at a temperature of 20-25° C. in the dark.
The results of the assay are provided as IC50 values.
Background: In Alpha technology, singlet oxygen from a donor bead excites a nearby acceptor bead.

A further assay deals with T2, EGFR wild type (WT) (Homo sapiens, UniProt P00533).
T2 construct: expressed in transfected cells; host or cells: human HEK cells (ATCC CRL-1573), retroviral transduction
The experiment in a line: pEGFR assay (AlphaScreen Surefire, HEK cells). The following applies: HEK cells expressing EGFR WT. The procedure: This assay quantifies the phosphorylation of EGFR at Tyr1068 and was used to measure the inhibitory effect of compounds on the transgenic EGFR wild type (WT) protein expressed in HEK cells.
as §1, with “Transduced cells were selected using puromycin. p-EGFR Tyr1068 was determined using the AlphaScreen Surefire pEGF Receptor (Tyr1068) Assay (PerkinElmer, TGRERS). For” for “For”, “EGFR WT” for “HER2 YVMA”, “FBS.” for “FBS. 4 hours prior to compound addition, HER2 YVMA expression was induced using 1 μg/ml Doxycycline.”, “C.—with” for “C. with”
This cellular phospho-EGFR (pEGFR) compound dose-response assay quantifies the phosphorylation of EGFR at Tyr1068 in HEK cells expressing EGFR WT. The results of the assay are provided as IC50 values.

The test system of assay [1] is NCI-H2170 HER2 YVMA cells. The assay is described as follows: Tumor cell line proliferation assay, NCI-H2170 HER2 YVMA. Conditions: Homo sapiens, 72 h, CellTiter-Glo, read-out: GI50 NCI H-2170 HER2 YVMA. The source says: Homology-directed genome engineering was employed to insert a 12 nucleotide sequence encoding YVMA into Exon 20 of the genomic HER2 locus in NCI-H2170 cells. […] The DNA template containing the HER2 exon 20 YVMA insertion variant was obtained from GenScript. PCR followed by Sanger sequencing was used to confirm the presence of the 12-nucleotide insertion in HER2 Exon 20 resulting in the YVMA amino acid duplication.
(§2) For proliferation assays, NCI-H2170 (HER2 wild type), NCI-H2170 HER2 YVMA and EGFR WT dependent A431 cells were used. NCI-H2170 HER2 YVMA or NCI-H2170 cells were seeded into 96-well plates at 750 cells/60 μL in growth media (RPMI ATCC+10% FBS, +Penicillin/Streptomycin). […] Compounds were added by using a HP D3000 Digital Dispenser one day after plating the cells. All treatments were performed in technical triplicates. Treated cells were incubated for 72 h at 37° C. with 5% CO2. CellTiter-Glo® Luminescent Cell Viability Assay (Promega) was performed and chemoluminescence was measured by using the multilabel Plate Reader VICTOR X4. The raw data were imported into and analyzed with the Boehringer Ingelheim proprietary software MegaLab (curve fitting based on the program PRISM, GraphPad Inc.).
For orientation: ATP-based viability assays read luminescence as a measure of living cells.

The test system of assay [2] is Ba/F3 cells HER2 mutants (YVMA). The experiment in a line: Ba/F3 proliferation assay, HER2 YVMA. Conditions: Mus musculus, BaF3, 72 h, CellTiter-Glo. The procedure:
(§3) Plasmids containing HER2 mutants and EGFR WT were obtained from GeneScript. To generate EGFR/HER2-dependent Ba/F3 models, Ba/F3 cells were transduced with retroviruses containing vectors that harbor EGFR WT, HER2 WT or HER2 mutants (YVMA). Platinum-E cells (Cell Biolabs) were used for retrovirus packaging. Retrovirus was added to Ba/F3 cells. To ensure infection, 4 μg/mL polybrene was added and cells were spinfected. Infection efficiency was confirmed by measuring GFP-positive cells using a cell analyzer. Cells with an infection efficiency of 10% to 20% were further cultivated and puromycin selection with 1 μg/mL was initiated. As a control, parental Ba/F3 cells were used to assess the selection status. Selection was considered successful when parental Ba/F3 cells cultures died. To evaluate the transforming potential of HER2 mutations, the growth medium was no longer supplemented with IL-3. Ba/F3 cells harboring the empty vector were used as a control. A switch from IL-3 to EGF was performed for Ba/F3 cells with the EGFR WT known for its dependency on EGF ligand. Approximately ten days before conducting the experiments, puromycin was left out. For proliferation assays (data in table 12 and 14), Ba/F3 cells were seeded into 96-well plates at 5×10^3 cells/100 μL in growth media. Compounds were added by using a HP D3000 Digital Dispenser. All treatments were performed in technical triplicates. Treated cells were incubated for 72 h at 37° C. with 5% CO2. CellTiter-Glo® Luminescent Cell Viability Assay (Promega) was performed and chemoluminescence was measured by using the multilabel Plate Reader VICTOR X4. The raw data were imported into and analyzed with the Boehringer Ingelheim proprietary software MegaLab (curve fitting based on the program PRISM, GraphPad Inc.).

In assay [3] the test system is NCI-H2170 (HER2 wild type) cells. The assay is described as follows: Tumor cell line proliferation assay, NCI-H2170 (HER2 wild type). Conditions: Homo sapiens, 72 h, CellTiter-Glo, read-out: GI50 NCI H-2170 HER2 wt amp. The procedure: as §2
Assay [4] has as its system EGFR WT dependent A431 cells. The experiment in a line: Tumor cell line proliferation assay, A431. Conditions: Homo sapiens, A-431, 72 h, CellTiter-Glo, read-out: GI50 A431 EGFR wt amp. On the procedure:
as §2

The test system of another assay is Ba/F3 cells EGFR WT. The assay is described as follows: Ba/F3 proliferation assay, EGFR WT (EGF dependent). The following applies: Mus musculus, CellTiter-Glo, read-out: GI50 BAF3 EGF dep. On the procedure:
as §3

In another assay the test system is Ba/F3 cells HER2 WT. The assay is described as follows: Ba/F3 proliferation assay, HER2 WT. The following applies: Mus musculus, BaF3, 72 h, CellTiter-Glo. The procedure: as §3
[5] abbreviates: phosphorylation at Tyr1221/1222, 4 h.
Setting [6] is: phosphorylation at Tyr1068, 4 h.
[7] abbreviates: BaF3, EGF instead of IL-3, 72 h.
Where [8] appears, read: BaF3, prior art compounds (Table 14), EGF, 72 h.

T2 sequence (P00533 25-1210): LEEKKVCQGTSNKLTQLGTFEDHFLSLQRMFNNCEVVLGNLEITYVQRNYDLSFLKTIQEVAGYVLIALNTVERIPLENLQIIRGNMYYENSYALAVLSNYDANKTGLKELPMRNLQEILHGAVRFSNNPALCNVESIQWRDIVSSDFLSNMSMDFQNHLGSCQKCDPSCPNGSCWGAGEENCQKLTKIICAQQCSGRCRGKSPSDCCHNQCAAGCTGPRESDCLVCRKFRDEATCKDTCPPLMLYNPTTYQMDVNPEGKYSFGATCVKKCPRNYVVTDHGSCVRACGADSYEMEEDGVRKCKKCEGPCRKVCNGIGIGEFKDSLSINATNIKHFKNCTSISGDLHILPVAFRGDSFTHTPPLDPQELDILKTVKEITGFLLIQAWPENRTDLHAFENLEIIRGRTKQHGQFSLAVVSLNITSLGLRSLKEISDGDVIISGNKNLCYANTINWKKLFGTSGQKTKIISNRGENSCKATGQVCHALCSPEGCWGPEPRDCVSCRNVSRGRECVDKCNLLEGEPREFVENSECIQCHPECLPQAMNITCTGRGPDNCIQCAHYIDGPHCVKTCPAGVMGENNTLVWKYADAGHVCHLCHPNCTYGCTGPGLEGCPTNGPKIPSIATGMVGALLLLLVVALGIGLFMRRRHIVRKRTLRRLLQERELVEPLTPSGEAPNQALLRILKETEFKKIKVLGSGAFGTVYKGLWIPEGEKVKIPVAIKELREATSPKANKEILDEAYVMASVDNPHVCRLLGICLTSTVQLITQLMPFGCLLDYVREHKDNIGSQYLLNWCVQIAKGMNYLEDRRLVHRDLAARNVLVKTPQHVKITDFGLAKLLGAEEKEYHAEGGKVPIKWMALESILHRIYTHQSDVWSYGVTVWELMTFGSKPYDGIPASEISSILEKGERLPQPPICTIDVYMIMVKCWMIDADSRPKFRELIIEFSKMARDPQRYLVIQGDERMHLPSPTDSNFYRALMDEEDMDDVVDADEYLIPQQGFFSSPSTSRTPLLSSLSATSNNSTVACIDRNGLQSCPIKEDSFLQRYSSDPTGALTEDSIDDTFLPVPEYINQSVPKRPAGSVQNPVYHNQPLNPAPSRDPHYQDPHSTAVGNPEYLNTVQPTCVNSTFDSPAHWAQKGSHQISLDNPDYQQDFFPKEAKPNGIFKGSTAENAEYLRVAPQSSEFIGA
T1 sequence (P04626 with tags, fused parts or gaps INS775YVMA): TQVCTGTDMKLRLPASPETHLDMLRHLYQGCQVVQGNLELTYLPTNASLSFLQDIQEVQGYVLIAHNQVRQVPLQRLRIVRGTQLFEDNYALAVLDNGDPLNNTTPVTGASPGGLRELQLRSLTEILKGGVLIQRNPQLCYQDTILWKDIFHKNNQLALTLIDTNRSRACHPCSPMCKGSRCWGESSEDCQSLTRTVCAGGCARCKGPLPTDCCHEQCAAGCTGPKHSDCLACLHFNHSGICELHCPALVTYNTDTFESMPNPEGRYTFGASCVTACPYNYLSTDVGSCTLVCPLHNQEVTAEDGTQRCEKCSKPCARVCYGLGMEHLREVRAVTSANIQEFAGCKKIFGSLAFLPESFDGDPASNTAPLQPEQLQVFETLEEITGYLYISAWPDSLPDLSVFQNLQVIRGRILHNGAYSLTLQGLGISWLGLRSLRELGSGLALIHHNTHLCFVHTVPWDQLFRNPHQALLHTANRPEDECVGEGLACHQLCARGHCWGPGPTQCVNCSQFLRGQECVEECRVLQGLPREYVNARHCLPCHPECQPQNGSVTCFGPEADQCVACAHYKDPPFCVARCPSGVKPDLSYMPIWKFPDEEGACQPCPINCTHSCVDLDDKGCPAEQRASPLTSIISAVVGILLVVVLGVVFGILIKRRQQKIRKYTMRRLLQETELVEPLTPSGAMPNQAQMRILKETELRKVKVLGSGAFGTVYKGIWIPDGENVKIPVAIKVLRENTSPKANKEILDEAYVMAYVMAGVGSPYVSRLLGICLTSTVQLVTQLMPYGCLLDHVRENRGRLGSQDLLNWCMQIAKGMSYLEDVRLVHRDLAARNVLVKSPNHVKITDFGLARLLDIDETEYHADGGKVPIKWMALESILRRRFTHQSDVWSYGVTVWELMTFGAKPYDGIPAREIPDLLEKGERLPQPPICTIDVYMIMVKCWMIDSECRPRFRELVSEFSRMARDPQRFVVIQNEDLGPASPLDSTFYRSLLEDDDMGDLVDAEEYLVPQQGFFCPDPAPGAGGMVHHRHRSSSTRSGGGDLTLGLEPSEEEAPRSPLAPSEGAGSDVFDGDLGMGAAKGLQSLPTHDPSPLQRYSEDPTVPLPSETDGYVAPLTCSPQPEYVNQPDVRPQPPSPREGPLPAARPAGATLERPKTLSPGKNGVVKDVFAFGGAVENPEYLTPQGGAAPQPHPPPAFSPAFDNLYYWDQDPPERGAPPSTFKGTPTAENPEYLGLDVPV

Regarding `C=CC(=O)N1CCN(c2ncc3ncnc(Nc4ccc(Oc5ccn6ncnc6c5)c(C)c4)c3n2)CC1` [Example I-1], the IC50 came to 0.003 µM on HER2 YVMA (setting [5]) and 0.153 µM against EGFR wild type (WT) (setting [6]). The GI50 amounted to 0.036 µM in assay [1]; 0.009 µM in assay [2]; 0.006 µM in assay [3]; 2.18 µM in assay [4]; 1.37 µM with Ba/F3 cells EGFR WT (setting [7]); 0.001 µM with Ba/F3 cells HER2 WT.
Turning to `C=CC(=O)N1CCN(c2ncc3ncnc(Nc4ccc(Oc5ccn6ncnc6c5)c(Cl)c4)c3n2)CC1` [Example I-2], the IC50 on HER2 YVMA (setting [5]) was 0.002 µM; on EGFR wild type (WT) (setting [6]), 0.062 µM. Besides, the GI50 in assay [1] stood at 0.04 µM; in assay [2], 0.006 µM; in assay [3] it was 0.006 µM; in assay [4] it was 1.57 µM; in the assay on Ba/F3 cells EGFR WT (setting [7]), 0.67 µM; in the assay with Ba/F3 cells HER2 WT it was 0.001 µM.
In the case of `C=CC(=O)N1CCN(c2ncc3ncnc(Nc4cc(Cl)c(Oc5ccn6ncnc6c5)c(Cl)c4)c3n2)CC1` [Example I-3], the 50% inhibitory concentration (IC50) against HER2 YVMA (setting [5]) stood at 0.01 µM; at EGFR wild type (WT) (setting [6]), 0.371 µM. Besides, the GI50 in assay [1] came to 0.07 µM; in assay [2] it was 0.011 µM; in assay [3] it was 0.012 µM; in assay [4] it was 3.83 µM; with Ba/F3 cells EGFR WT (setting [7]), 2.22 µM; with Ba/F3 cells HER2 WT, 0.002 µM.
In the case of `C=CC(=O)N1CCN(c2ncc3ncnc(Nc4cc(F)c(Oc5ccn6ncnc6c5)c(Cl)c4)c3n2)CC1` [Example I-4], the IC50 stood at 0.018 µM against HER2 YVMA (setting [5]) and 0.524 µM against EGFR wild type (WT) (setting [6]). The concentration for 50% growth inhibition (GI50) is 0.085 µM in assay [1]; 0.02 µM in assay [2]; 0.012 µM in assay [3]; over 5 µM in assay [4]; 1.01 µM in the assay with Ba/F3 cells EGFR WT (setting [7]); 0.002 µM in the assay with Ba/F3 cells HER2 WT.
As for `C=CC(=O)N1CCN(c2ncc3ncnc(Nc4ccc(Oc5ccn6ncnc6c5)c(C)c4)c3n2)C[C@@H]1C` [Example I-5], the 50% inhibitory concentration (IC50) turned out to be 0.007 µM on HER2 YVMA (setting [5]) and 0.84 µM against EGFR wild type (WT) (setting [6]). In addition, the GI50 is 0.108 µM in assay [1]; 0.06 µM in assay [2]; 0.012 µM in assay [3]; 3.64 µM in assay [4]; over 5 µM in the assay with Ba/F3 cells EGFR WT (setting [7]); 0.004 µM with Ba/F3 cells HER2 WT.
For the compound `C=CC(=O)N1CCN(c2ncc3ncnc(Nc4ccc(Oc5ccn6ncnc6c5)c(C)c4)c3n2)C[C@H]1C` [Example I-6], the IC50 came to 0.006 µM at HER2 YVMA (setting [5]) and 0.252 µM at EGFR wild type (WT) (setting [6]). Also, the 50% growth inhibitory concentration (GI50) worked out at 0.052 µM in assay [1]; 0.015 µM in assay [2]; 0.009 µM in assay [3]; 2.64 µM in assay [4]; 2.65 µM in the assay with Ba/F3 cells EGFR WT (setting [7]).
With `C=CC(=O)N1CCN(c2ncc3ncnc(Nc4ccc(Oc5ccn6ncnc6c5)c(C)c4)c3n2)[C@H](C)C1` [Example I-7], the IC50 against HER2 YVMA (setting [5]) came to 0.007 µM; at EGFR wild type (WT) (setting [6]), 1.2 µM. Besides, the 50% growth inhibitory concentration (GI50) was 0.125 µM in assay [1]; 0.029 µM in assay [2]; 0.013 µM in assay [3]; 3.99 µM in assay [4]; over 5 µM with Ba/F3 cells EGFR WT (setting [7]); 0.004 µM in the assay with Ba/F3 cells HER2 WT.
`C=CC(=O)N1CCN(c2ncc3ncnc(Nc4ccc(Oc5ccn6ncnc6c5)c(C)c4)c3n2)[C@@H](C)C1` [Example I-8]: the results for the IC50 on HER2 YVMA (setting [5]) and against EGFR wild type (WT) (setting [6]) were 0.006 µM and 0.577 µM, respectively. Further, the concentration for 50% growth inhibition (GI50) in assay [1] was 0.091 µM; in assay [2], 0.022 µM; in assay [3] it was 0.014 µM; in assay [4], 3.79 µM; with Ba/F3 cells EGFR WT (setting [7]), over 5 µM; in the assay with Ba/F3 cells HER2 WT it was 0.003 µM.
Take `C=CC(=O)Nc1ccc2ncnc(Nc3ccc(Oc4ccn5ncnc5c4)c(C)c3)c2c1` [WO 2007/059257 Ex. 169, reference compound]: the 50% inhibitory concentration (IC50) against HER2 YVMA (prior art compounds (Table 13), Tyr1221/1222, 4 h) amounted to 0.081 µM; on EGFR wild type (WT) (prior art compounds (Table 13), Tyr1068, 4 h), 0.355 µM. For the same compound, the GI50 in assay [1] (prior art compounds (Table 14)) is 1.43 µM; in assay [2] (prior art compounds (Table 14)) it was 0.334 µM; in assay [3] (prior art compounds (Table 14)), 0.426 µM; in assay [4] (prior art compounds (Table 14)) it was over 5 µM; in the assay on Ba/F3 cells EGFR WT (setting [8]), 3.56 µM; in the assay on Ba/F3 cells HER2 WT (prior art compounds (Table 14)), 0.04 µM.
As for `CCOc1cc2ncc(C#N)c(Nc3ccc(OCc4ccccn4)c(Cl)c3)c2cc1NC(=O)/C=C/CN(C)C` [neratinib, reference compound], the GI50 worked out at 0.037 µM in assay [1] (prior art compounds (Table 14)); 0.005 µM in assay [2] (prior art compounds (Table 14)); 0.003 µM in assay [3] (prior art compounds (Table 14)); 0.055 µM in assay [4] (prior art compounds (Table 14)); 0.014 µM in the assay on Ba/F3 cells EGFR WT (setting [8]).
